Tests used:
[1] = xn = mol fraction of the nth substance listed; settings: 101 kPa, Liquid, Vibrating tube method
[2] = excess molar enthalpy (molar enthalpy of mixing); xn = mol fraction of the nth substance listed; settings: 291.15 K, 101 kPa, Liquid, Calvet calorimetry

CCCOC(C)=O [propyl ethanoate] + CCCCCCCCC
[1]
Settings | mass density [kg/m3]
291.15 K, x1 = 0.0569 | 724.6
291.15 K, x1 = 0.1163 | 730.7
291.15 K, x1 = 0.1916 | 739
291.15 K, x1 = 0.282 | 750
291.15 K, x1 = 0.3583 | 760
291.15 K, x1 = 0.4338 | 770.9
291.15 K, x1 = 0.4846 | 778.7
291.15 K, x1 = 0.5686 | 792.4
291.15 K, x1 = 0.6289 | 803.2
291.15 K, x1 = 0.6876 | 814.4
291.15 K, x1 = 0.7441 | 826
291.15 K, x1 = 0.7948 | 837.1
291.15 K, x1 = 0.8162 | 841.9
291.15 K, x1 = 0.8844 | 858.5
291.15 K, x1 = 0.9349 | 871.7
291.15 K, x1 = 0.9464 | 874.9
291.15 K, x1 = 1 | 889.6
298.15 K, x1 = 0.0361 | 717.2
298.15 K, x1 = 0.0384 | 717.4
298.15 K, x1 = 0.1106 | 724.5
298.15 K, x1 = 0.2023 | 734.5
298.15 K, x1 = 0.2833 | 744.2
298.15 K, x1 = 0.3636 | 754.6
298.15 K, x1 = 0.4312 | 764.2
298.15 K, x1 = 0.5061 | 775.6
298.15 K, x1 = 0.5653 | 785.3
298.15 K, x1 = 0.6308 | 796.9
298.15 K, x1 = 0.6728 | 804.8
298.15 K, x1 = 0.7321 | 816.5
298.15 K, x1 = 0.7908 | 829
298.15 K, x1 = 0.8257 | 836.9
298.15 K, x1 = 0.8918 | 852.8
298.15 K, x1 = 0.9404 | 865.6
298.15 K, x1 = 1 | 882.5
318.15 K, x1 = 0.0217 | 700
318.15 K, x1 = 0.1046 | 707.7
318.15 K, x1 = 0.1791 | 715.4
318.15 K, x1 = 0.2659 | 725
318.15 K, x1 = 0.335 | 733.4
318.15 K, x1 = 0.4077 | 742.9
318.15 K, x1 = 0.4731 | 752.1
318.15 K, x1 = 0.5367 | 761.7
318.15 K, x1 = 0.5943 | 771
318.15 K, x1 = 0.6526 | 781.2
318.15 K, x1 = 0.7078 | 791.4
318.15 K, x1 = 0.7597 | 801.7
318.15 K, x1 = 0.8179 | 814.1
318.15 K, x1 = 0.8565 | 822.8
318.15 K, x1 = 0.8964 | 832.4
318.15 K, x1 = 0.9373 | 842.7
318.15 K, x1 = 1 | 859.8
328.15 K, x1 = 0.056 | 695.1
328.15 K, x1 = 0.1062 | 699.8
328.15 K, x1 = 0.1918 | 708.3
328.15 K, x1 = 0.2757 | 717.5
328.15 K, x1 = 0.3519 | 726.6
328.15 K, x1 = 0.429 | 736.7
328.15 K, x1 = 0.4999 | 746.7
328.15 K, x1 = 0.5709 | 757.6
328.15 K, x1 = 0.6217 | 766
328.15 K, x1 = 0.6881 | 777.7
328.15 K, x1 = 0.7461 | 788.7
328.15 K, x1 = 0.7857 | 796.8
328.15 K, x1 = 0.8318 | 806.6
328.15 K, x1 = 0.8801 | 817.6
328.15 K, x1 = 0.8853 | 818.8
328.15 K, x1 = 0.9429 | 833
328.15 K, x1 = 1 | 848.3

[2]
Settings | excess molar enthalpy [kcal/mol]
x1 = 0.1167 | 0.142
x1 = 0.2247 | 0.2261
x1 = 0.3093 | 0.2789
x1 = 0.379 | 0.3102
x1 = 0.4448 | 0.325
x1 = 0.5009 | 0.3305
x1 = 0.5447 | 0.3277
x1 = 0.5617 | 0.3248
x1 = 0.6139 | 0.3136
x1 = 0.6683 | 0.2921
x1 = 0.7299 | 0.2593
x1 = 0.7964 | 0.215
x1 = 0.8649 | 0.155
x1 = 0.9356 | 0.0848

Source: the NIST ThermoML archive (doi:10.1021/je3011979)
